Test results: patent US9243036B2, “Anti-microbial activity of synthetic peptides” (THE UNITED STATES OF AMERICA, as represented by the …, priority 2012, dated 2016)

Legend:
[1] = polymyxin B; cited from earlier work
[2] = literature; cited from earlier work
[3] = test system: E. coli and P. aeruginosa; assay: MIC of polymyxin B (bacterium not stated; E. coli / P. aeruginosa context); format: cell-based
Description: In vitro anti-bacterial activity of EC5. The test microorganisms mentioned earlier in the experimental procedures were used to evaluate the bactericidal activity of EC5 peptide. The minimum inhibitory concentrations (MICs) of the peptide were determined by standard dilution assay as recommended by Clinical and Laboratory Standard Institutes (CLSI) guidelines (Azad, M. A., et al., (2011) Antimicrob. Agents Chemother. 55, 2137-2145). Bacteria were grown to mid-logarithmic phase in cation-supplemented Mueller-Hinton broth (MHB) (Becton Dickinson, Sparks, Md.) on an orbital shaker (37° C.) and diluted to a 0.5 McFarland standard to a final volume of 1 ml. Decreasing concentrations of the peptide were incubated with the microorganisms. Results were recorded by visual inspection after 24 h of incubation at 37° C. Assay was repeated three separate times to ensure reproducibility. […]
Cytoplasmic depolarization assay(Δψ) was performed using the membrane potential sensitive dye 3,3′-dipropylthiadicarbocyanine iodide (diSC3-5) (Zang, L. et al., (2001) J. Biol. Chem. 276, 35714-35722). This dye can cross the outer membrane of the bacterial cell and become concentrated in the cytoplasmic membrane and thereby it self-quenches its own fluorescence. Upon addition of a membrane-permeabilizing agent the dye is released with consequent increase in the fluorescence. […]

E. coli [4] = assay: Cytoplasmic membrane depolarization assay (diSC3-5) with parallel CFU plating; format: cell-based
Description: (§1) Membrane depolarization activity (Δψ) of the peptide was determined with intact E. coli and P. aeruginosa cells and the membrane potential-sensitive fluorescent dye, 3,3′-dipropylthiadicarbocyanine Iodide (diSC (3)5) (Invitrogen, Oregon), according to described methods (Sims, P. J., et al (1974) Biochemistry 13, 3315-3330). Briefly, bacterial cells of mid-logarithmic phase were harvested by centrifugation and washed twice with HEPES buffer (5 mM HEPES, 5 mM glucose, pH 7.6). The cells were suspended in the same buffer to an OD of 0.05. The cell suspension was incubated with […] diSC (3)5 until maximal uptake of the dye. 100 mM KCl was added to equilibrate the cytoplasmic and external potassium ion concentration of peptide, and fluorescence was monitored at an excitation wavelength of 622 nm and an emission wavelength of 670 nm. Polymyxin B was used as a positive control and S. aureus cells were used as negative control. Simultaneously the cells were plated on NA plates and incubated at 37° C. overnight to assess the number of CFU.
(§2) Cytoplasmic depolarization assay(Δψ) was performed using the membrane potential sensitive dye 3,3′-dipropylthiadicarbocyanine iodide (diSC3-5) (Zang, L. et al., (2001) J. Biol. Chem. 276, 35714-35722). This dye can cross the outer membrane of the bacterial cell and become concentrated in the cytoplasmic membrane and thereby it self-quenches its own fluorescence. Upon addition of a membrane-permeabilizing agent the dye is released with consequent increase in the fluorescence. EC5 at 8 μg/ml and 16 μg/ml caused rapid depolarization of the cytoplasmic membrane in both E. coli and P. aeruginosa resulting in the release of diSC3-5 within 5 min (FIG. 9C). […] However Polymyxin B even at its MIC of 0.5 μg/ml caused slow release of diSC3-5 when compared to EC5.

P. aeruginosa [5] = assay: as above; format: cell-based
Description: as §1, §2

E. coli [6] = assay: Membrane permeability by PI and SYTO9 uptake (LIVE/DEAD BACLIGHT); format: cell-based; conditions: even at the lowest concentration used
Description: (§3) The effects of EC5 on the membrane integrity of E. coli and P. aeruginosa cells were assessed using the LIVE/DEAD BACLIGHT™ kit (Invitrogen, Oregon) according to the manufacturer's protocol. Membrane integrity of the cells after the addition of different concentrations of peptide EC5 was measured using fluorescence micro plate reader (BioTek Instruments, Winooski, Vt.). Experiments were done in triplicates. PMB was used as a positive control.
(§4) The membrane permeabilizing activity of EC5 was also studied using the SYTO9 and PI staining method. SYTO9 stain labels both live and dead bacteria when alone, but propidium iodide stains only cells with damaged membranes, reducing the level of green fluorescent SYTO9 when both the dyes are present. […] The ratio of green versus red fluorescence can be calculated as a measure of live bacteria. […] Polymyxin B, an AMP with a net charge of +5 with membrane permeabilizing activity was used as positive control.

P. aeruginosa [7] = assay: as above; format: cell-based; conditions: even at the lowest concentration used
Description: as §3, §4

[8] = polymyxin B at 3.125 μg/ml, after 5 min of exposure
[9] = polymyxin B at its MIC of 0.5 μg/ml, compared to EC5

In the case of Polymyxin B, the net charge [1] is listed as “+5”, the toxicity [2] is listed as “high toxicity, especially nephrotoxicity” and the “MIC of polymyxin B” value [3] is listed as 0.5 µg/mL. The “time to complete inhibition of CFU” value (E. coli [4]; polymyxin B at 3.125 μg/ml) was no more than 5 min, the “release of diSC35 from the cells” value (E. coli [4]; [8]) was “minimal release” and the “release of diSC3-5” value (E. coli [4]; [9]) was “slow release”. The “time to complete inhibition of CFU” value (P. aeruginosa [5]; polymyxin B at 3.125 μg/ml) was no more than 5 min, the “release of diSC35 from the cells” value (P. aeruginosa [5]; [8]) was “minimal release” and the “release of diSC3-5” value (P. aeruginosa [5]; [9]) was “slow release”. The “permeabilization of bacterial cell membranes” value (E. coli [6]) was “able to permeabilize almost all bacterial cell membranes” and the “permeabilization of bacterial cell membranes” value (P. aeruginosa [7]) was “able to permeabilize almost all bacterial cell membranes”.
